Laboratory results taken from ChEMBL document CHEMBL1137339, “Improved therapeutic efficacy of doxorubicin through conjugation with a novel peptide drug delivery technology (Vectocell)” (J Med Chem, 2006).
Starred links: 1 amine or outer side, 2 acyl side, 3 side chain; linkers in the order of their positions; H or OH if unused. Non-standard residues stand in square brackets, D forms with d. Residues, ends and D or L forms follow the SMILES beside them. ξ: configuration not given here. *: point of attachment. X1 = COc1cccc2c1C(=O)c1c(O)c3c(c(O)c1C2=O)C[C@@](O)(C(=O)COC(=O)CCCN1C(=O)CC(*)C1=O)C[C@@H]3O[C@H]1C[C@H](N)[C@H](O)[C@H](C)O1; X4 = COc1cccc2c1C(=O)c1c(O)c3c(c(O)c1C2=O)C[C@@](O)(C(=O)CO)C[C@@H]3O[C@H]1C[C@H](NC(=O)CCCN2C(=O)CC(*)C2=O)[C@H](O)[C@H](C)O1; X2 = COc1cccc2c1C(=O)c1c(O)c3c(c(O)c1C2=O)C[C@@](O)(C(=O)C*)CC3O[C@H]1C[C@H](N)[C@H](O)[C@H](C)O1; X3 = COc1cccc2c1Cc1cc3c(cc1C2)C[C@@](O)(C(=O)CSCN*)C[C@@H]3O[C@H]1C[C@H](N)[C@H](O)[C@H](C)O1; CO = O=C([*:1])[*:2]; ξC = NC(CS)C(=O)O

How the values were obtained:
NCI/ADR-RES [1] = assay: Cytotoxicity against doxorubicin-resistant MCF7/Adr cell line by WST1 assay; format: functional, cell-based; conditions: Homo sapiens
HCT-116 [2] = assay: Cytotoxicity against doxorubicin-sensitive HCT116 cell line by WST1 assay; format: functional, cell-based; conditions: Homo sapiens
HCT-116 [3] = assay: Cytotoxicity against HCT116 cell line xenografted in NMRI nu/nu mouse at 10 umol/kg relative to control; format: functional, Homo sapiens
MCF7 = assay: Cytotoxicity against doxorubicin-sensitive MCF7/6 cell line by WST1 assay; format: functional, cell-based; conditions: Homo sapiens
HCT-116 [4] = assay: Cytotoxicity against HCT116 cell line xenografted in NMRI nu/nu mouse at 15 umol/kg relative to control; format: functional, Homo sapiens
HCT-15 [5] = assay: Cytotoxicity against doxorubicin-resistant HCT15 cell line in presence of verapamil by WST1 assay; format: functional, cell-based; conditions: Homo sapiens
HCT-116 [6] = assay: Cytotoxicity against doxorubicin-sensitive HCT116 cell line in presence of verapamil by WST1 assay; format: functional, cell-based; conditions: Homo sapiens
HCT-116 [7] = assay: Cytotoxicity against HCT116 cell line xenografted in NMRI nu/nu mouse at 6.5 umol/kg relative to control; format: functional, Homo sapiens
MES-SA/Dx5 [8] = assay: Cytotoxicity against MES-SA/dx5 cell line by WST1 assay; format: functional, cell-based; conditions: Homo sapiens
MES-SA/Dx5 [9] = assay: Cytotoxicity against doxorubicin-resistant MES-SA/dx5 cell line in presence of verapamil by WST1 assay; format: functional, cell-based; conditions: Homo sapiens
HCT-15 [10] = assay: Cytotoxicity against HCT15 cell line by WST1 assay; format: functional, cell-based; conditions: Homo sapiens
NCI/ADR-RES [11] = assay: Cytotoxicity against doxorubicin-resistant MCF7/Adr cell line in presence of verapamil by WST1 assay; format: functional, cell-based; conditions: Homo sapiens

SMILES	IC50 (NCI/ADR-RES [1])	IC50 (HCT-116 [2])	Activity (HCT-116 [3])	IC50 (MCF7)	Activity (HCT-116 [4])	IC50 (HCT-15 [5])	IC50 (HCT-116 [6])	Activity (HCT-116 [7])	IC50 (MES-SA/Dx5 [8])	IC50 (MES-SA/Dx5 [9])	IC50 (HCT-15 [10])	IC50 (NCI/ADR-RES [11])
COc1cccc2c1Cc1cc3c(cc1C2)C[C@@](O)(C(=O)CSCNC(=O)NCC(=O)N[C@@H](CCCCN)C(=O)N[C@@H](CCCN=C(N)N)C(=O)N[C@@H](CCCCN)C(=O)N[C@@H](CCCCN)C(=O)N[C@@H](CCCCN)C(=O)NCC(=O)N[C@@H](CCCCN)C(=O)N[C@@H](CC(C)C)C(=O)NCC(=O)N[C@@H](CCCCN)C(=O)N[C@@H](CCCCN)C(=O)N[C@@H](CCCN=C(N)N)C(=O)N1CCC[C@H]1C(=O)N[C@@H](CCCN=C(N)N)C(=O)N[C@@H](CO)C(=O)N[C@@H](CCCN=C(N)N)C(=O)N[C@@H](CS)C(=O)O)C[C@@H]3O[C@H]1C[C@H](N)[C@H](O)[C@H](C)O1.O=C(O)C(F)(F)F ({X3-CO}-GKRKKKGKLGKKRPRSRC-OH)	862 µM	30 µM	86.2%	17 µM	–	–	–	–	–	–	–	–
COc1cccc2c1C(=O)c1c(O)c3c(c(O)c1C2=O)C[C@@](O)(C(=O)CSCC(N)C(=O)N[C@@H](CO)C(=O)N[C@@H](CCCN=C(N)N)C(=O)N[C@@H](CCCN=C(N)N)C(=O)N[C@@H](C)C(=O)N[C@@H](CCCN=C(N)N)C(=O)N[C@@H](CCCN=C(N)N)C(=O)N[C@@H](CO)C(=O)N1CCC[C@H]1C(=O)N[C@@H](CCCN=C(N)N)C(=O)N[C@@H](Cc1c[nH]cn1)C(=O)N[C@@H](CC(C)C)C(=O)NCC(=O)N[C@@H](CO)C(=O)NCC(=O)N[C@@H](CS)C(=O)O)CC3O[C@H]1C[C@H](N)[C@H](O)[C@H](C)O1.O=C(O)C(F)(F)F (some centres not stated) (H-[ξC](X2)SRRARRSPRHLGSGC-OH)	121 µM	153 µM	55.8%	37 µM	–	–	–	–	–	–	–	–
COc1cccc2c1C(=O)c1c(O)c3c(c(O)c1C2=O)C[C@@](O)(C(=O)COC(=O)CCCN1C(=O)CC(SCC(N)C(=O)NCC(=O)N[C@@H](CCCCN)C(=O)N[C@@H](CCCN=C(N)N)C(=O)N[C@@H](CCCCN)C(=O)N[C@@H](CCCCN)C(=O)N[C@@H](CCCCN)C(=O)NCC(=O)N[C@@H](CCCCN)C(=O)N[C@@H](CC(C)C)C(=O)NCC(=O)N[C@@H](CCCCN)C(=O)N[C@@H](CCCCN)C(=O)N[C@@H](CCCN=C(N)N)C(=O)N2CCC[C@H]2C(=O)N[C@@H](CCCN=C(N)N)C(=O)N[C@@H](CO)C(=O)N[C@@H](CCCN=C(N)N)C(=O)N[C@@H](CS)C(=O)O)C1=O)C[C@@H]3O[C@H]1C[C@H](N)[C@H](O)[C@H](C)O1.O=C(O)C(F)(F)F (some centres not stated) (H-[ξC](X1)GKRKKKGKLGKKRPRSRC-OH)	> 1000 µM	5 µM	–	10 µM	34.1%	–	–	–	–	–	–	–
COc1cccc2c1C(=O)c1c(O)c3c(c(O)c1C2=O)C[C@@](O)(C(=O)COC(=O)CCCN1C(=O)CC(SCC(N)C(=O)N[C@@H](CO)C(=O)N[C@@H](CCCN=C(N)N)C(=O)N[C@@H](CCCN=C(N)N)C(=O)N[C@@H](C)C(=O)N[C@@H](CCCN=C(N)N)C(=O)N[C@@H](CCCN=C(N)N)C(=O)N[C@@H](CO)C(=O)N2CCC[C@H]2C(=O)N[C@@H](CCCN=C(N)N)C(=O)N[C@@H](Cc2c[nH]cn2)C(=O)N[C@@H](CC(C)C)C(=O)NCC(=O)N[C@@H](CO)C(=O)NCC(=O)N[C@@H](CS)C(=O)O)C1=O)C[C@@H]3O[C@H]1C[C@H](N)[C@H](O)[C@H](C)O1.O=C(O)C(F)(F)F (some centres not stated) (H-[ξC](X1)SRRARRSPRHLGSGC-OH)	532 µM	2 µM	–	9 µM	39%	–	–	–	–	–	–	–
COc1cccc2c1C(=O)c1c(O)c3c(c(O)c1C2=O)C[C@@](O)(C(=O)CO)C[C@@H]3O[C@H]1C[C@H](N)[C@H](O)[C@H](C)O1.O=C(O)C(F)(F)F [DOXORUBICIN TRIFLUOROACETATE]	> 1000 µM	3 µM	–	–	–	20 µM	2 µM	49.6%	600 µM	21 µM	283 µM	30 µM
COc1cccc2c1C(=O)c1c(O)c3c(c(O)c1C2=O)C[C@@](O)(C(=O)CO)C[C@@H]3O[C@H]1C[C@H](NC(=O)CCCN2C(=O)CC(SC[C@H](N)C(=O)N[C@H](C(=O)N[C@@H](CCCCN)C(=O)N[C@@H](CCCN=C(N)N)C(=O)NCC(=O)N[C@@H](CC(C)C)C(=O)N[C@@H](CCCCN)C(=O)N[C@@H](CC(C)C)C(=O)N[C@@H](CCCN=C(N)N)C(=O)N[C@@H](Cc3c[nH]cn3)C(=O)N[C@H](C(=O)N[C@@H](CCCN=C(N)N)C(=O)N3CCC[C@H]3C(=O)N[C@@H](CCCN=C(N)N)C(=O)N[C@H](C(=O)N[C@H](C(=O)N[C@@H](CCCN=C(N)N)C(=O)N[C@@H](CCSC)C(=O)N[C@@H](CC(=O)O)C(=O)N[C@H](C(=O)O)C(C)C)[C@@H](C)O)C(C)C)C(C)C)C(C)C)C2=O)[C@H](O)[C@H](C)O1 (some centres not stated) (H-C(X4)VKRGLKLRHVRPRVTRMDV-OH)	500 µM	–	–	108 µM	–	–	–	–	–	–	–	–
